Laboratory results from patent US6534524B1, “Indazole compounds and pharmaceutical compositions for inhibiting protein kinases, and methods for their use” (Agouron Pharmaceuticals, Inc., priority 1999, dated 2003).
pIC50: −log10 of the molar value.

System: human umbilical vein endothelial cells (HUVEC)
Assay: HUVEC proliferation assay (VEGF-stimulated, MTT);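 as to % inhibition of the proliferation of HUVEC: relative to VEGF-stimulated control minus starvation-medium baseline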
Format: cell-based
Details: for % inhibition: Library III, HUVEC proliferation, nominal concentration of 0.5 nM; for % inhibition / % inhibition of the proliferation of HUVEC: crude reaction mixtures
Description: HUVEC Proliferation Assay
This assay determines the ability of a test compound to inhibit the growth factor-stimulated proliferation of human umbilical vein endothelial cells (“HUVEC”). HUVEC cells (passage 3-4, Clonetics, Corp.) were thawed into EGM2 culture medium (Clonetics Corp) in T75 flasks. Fresh EGM2 medium was added to the flasks 24 hours later. Four or five days later, cells were exposed to another culture medium (F12K medium supplemented with 10% fetal bovine serum (FBS), 60 μg/mL endothelial cell growth supplement (ECGS), and 0.1 mg/mL heparin). Exponentially-growing HUVEC cells were used in experiments thereafter. Ten to twelve thousand HUVEC cells were plated in 96-well dishes in 100 μl of rich, culture medium (described above). The cells were allowed to attach for 24 hours in this medium. The medium was then removed by aspiration and 105 μl of starvation media (F12K+1% FBS) was added to each well. After 24 hours, 15 μl of test agent dissolved in 1% DMSO in starvation medium or this vehicle alone was added into each treatment well; the final DMSO concentration was 0.1%. One hour later, 30 μl of VEGF (30 ng/mL) in starvation media was added to all wells except those containing untreated controls; the final VEGF concentration was 6 ng/mL. Cellular proliferation was quantified 72 hours later by MTT dye reduction, at which time cells were exposed for 4 hours MTT (Promega Corp.).
For screening compound library plates, one or two concentrations (one well per concentration) were employed, and the % inhibition was calculated by the following formula:
% inhibition=(control−test)÷(control−starvation)
% inhibition=(control-treated)/(control-starvation)×100

[1] = Library II, Y=S, 0.5 mM (column head; text: nominal 0.5 nM)
[2] = Library II, Y=S, 2 mM (column head; text: nominal 2 nM)
[3] = Library I, Y = CO, nominal concentration of 10 nM
[4] = Library I, Y = NH, nominal concentration of 10 nM
[5] = Library I, Y = O, nominal concentration of 10 nM

## O=C(Nc1ccc(Cl)nn1)c1ccccc1Sc1ccc2c(/C=C/c3ccccn3)n[nH]c2c1
  % inhibition: −21%

## O=C(Nc1c(F)cccc1F)c1ccccc1Sc1ccc2c(/C=C/c3ccccn3)n[nH]c2c1
  % inhibition: −31%

## O=C(Nc1nnc(C2CC2)s1)c1ccccc1Sc1ccc2c(/C=C/c3ccccn3)n[nH]c2c1
  % inhibition: −20%

## CC(C)(C)C(CO)NC(=O)c1ccccc1Sc1ccc2c(C=Cc3ccccn3)n[nH]c2c1 (stereo not shown)
  % inhibition: −7%

## COc1ccc(NC(=O)c2ccccc2Sc2ccc3c(/C=C/c4ccccn4)n[nH]c3c2)cc1Cl
  % inhibition: 2%

## CSc1nc(NC(=O)c2ccccc2Sc2ccc3c(/C=C/c4ccccn4)n[nH]c3c2)ns1
  % inhibition: −27%

## C=C(C)c1ccccc1NC(=O)c1ccccc1Sc1ccc2c(/C=C/c3ccccn3)n[nH]c2c1
  % inhibition: −41%

## CCC(COC)NC(=O)c1ccccc1Sc1ccc2c(/C=C/c3ccccn3)n[nH]c2c1 (stereo not shown)
[1]
  % inhibition of the proliferation of HUVEC: 1%
[2]
  % inhibition of the proliferation of HUVEC: 65%

## O=C(NCc1cccc(Cl)c1)c1ccccc1Sc1ccc2c(/C=C/c3ccccn3)n[nH]c2c1
  % inhibition: 24%

## CC(=O)Nc1cc(C(=O)c2ccc3c(/C=C/c4ccccn4)n[nH]c3c2)c(C)cc1C [Example 41(nn), 6-(5-Acetamido-2,4-dimethylbenzoyl)-3-E-[2-(pyridin-2-yl)ethenyl]-1H-indazole]
Homo sapiens, HUVEC, + albumin, read-out: HUVEC + albumin IC50
  pIC50: < 7.00

## CCN(CCNC(=O)c1ccccc1Sc1ccc2c(/C=C/c3ccccn3)n[nH]c2c1)c1cccc(C)c1
[1]
  % inhibition of the proliferation of HUVEC: 17%
[2]
  % inhibition of the proliferation of HUVEC: 1%

## O=C(Nc1ccc(O)c(F)c1)c1ccccc1Sc1ccc2c(/C=C/c3ccccn3)n[nH]c2c1
  % inhibition: −10%

## N/C(=N\O)c1[nH]cnc1NC(=O)c1ccccc1Sc1ccc2c(/C=C/c3ccccn3)n[nH]c2c1
  % inhibition: −15%

## O=C(NCCCCCO)c1ccccc1Sc1ccc2c(/C=C/c3ccccn3)n[nH]c2c1
  % inhibition: −2%

## COc1cccc(C)c1NC(=O)c1ccccc1Sc1ccc2c(/C=C/c3ccccn3)n[nH]c2c1
  % inhibition: 8%

## O=C(Nc1ccc(CO)cc1)c1ccccc1Sc1ccc2c(/C=C/c3ccccn3)n[nH]c2c1
  % inhibition: −18%

## CC(C)=CCC/C(C)=C/CNC(=O)c1ccccc1Sc1ccc2c(/C=C/c3ccccn3)n[nH]c2c1
  % inhibition: −22%

## CN(C)c1ccc(CNC(=O)c2ccccc2Sc2ccc3c(/C=C/c4ccccn4)n[nH]c3c2)cc1
[1]
  % inhibition of the proliferation of HUVEC: 32%
[2]
  % inhibition of the proliferation of HUVEC: 24%

## NC(=O)NNC(=O)c1ccccc1Sc1ccc2c(/C=C/c3ccccn3)n[nH]c2c1
[1]
  % inhibition of the proliferation of HUVEC: 19%
[2]
  % inhibition of the proliferation of HUVEC: 5%

## O=C(Nc1cccc(CO)c1)c1ccccc1Sc1ccc2c(/C=C/c3ccccn3)n[nH]c2c1
  % inhibition: 14%

## O=C(NCC1COc2ccccc2O1)c1ccccc1Sc1ccc2c(/C=C/c3ccccn3)n[nH]c2c1 (stereo not shown)
  % inhibition: −13%

## CC(=O)c1cccc(NC(=O)c2ccccc2Sc2ccc3c(/C=C/c4ccccn4)n[nH]c3c2)c1
  % inhibition: 5%

## O=C(Nc1ccc2[nH]ccc2c1)c1ccccc1Sc1ccc2c(/C=C/c3ccccn3)n[nH]c2c1
  % inhibition: 43%

## O=C(Nc1ccccc1-c1ccccc1)c1ccccc1Sc1ccc2c(/C=C/c3ccccn3)n[nH]c2c1
  % inhibition: 1%

## CN(CCO)C(=O)c1ccc2c(-c3nc4ccccc4[nH]3)n[nH]c2c1
[3]
  % inhibition of the proliferation of HUVEC: 27%
[4]
  % inhibition of the proliferation of HUVEC: −8%
[5]
  % inhibition of the proliferation of HUVEC: 48%

## C#CC1(NC(=O)c2ccccc2Sc2ccc3c(/C=C/c4ccccn4)n[nH]c3c2)CCCCC1
  % inhibition: 3%

## O=C(c1ccc2c(-c3nc4ccccc4[nH]3)n[nH]c2c1)N1CCCC(CO)C1 (stereo not shown)
[3]
  % inhibition of the proliferation of HUVEC: 96%
[4]
  % inhibition of the proliferation of HUVEC: 6%
[5]
  % inhibition of the proliferation of HUVEC: 134%

## CC(=O)c1ccc(NC(=O)c2ccccc2Sc2ccc3c(/C=C/c4ccccn4)n[nH]c3c2)cc1
  % inhibition: 6%

## N#CCc1ccc(NC(=O)c2ccccc2Sc2ccc3c(/C=C/c4ccccn4)n[nH]c3c2)cc1
  % inhibition: −13%
